64 molecules from patent publication US7638535B2, “4-(aminomethyl)-piperidine benzamides as 5HT4-antagonists” (Janssen Pharmaceutica N.V., priority 2003, dated 2009) can be followed below.

T1 sequence (Q13639 whole entry): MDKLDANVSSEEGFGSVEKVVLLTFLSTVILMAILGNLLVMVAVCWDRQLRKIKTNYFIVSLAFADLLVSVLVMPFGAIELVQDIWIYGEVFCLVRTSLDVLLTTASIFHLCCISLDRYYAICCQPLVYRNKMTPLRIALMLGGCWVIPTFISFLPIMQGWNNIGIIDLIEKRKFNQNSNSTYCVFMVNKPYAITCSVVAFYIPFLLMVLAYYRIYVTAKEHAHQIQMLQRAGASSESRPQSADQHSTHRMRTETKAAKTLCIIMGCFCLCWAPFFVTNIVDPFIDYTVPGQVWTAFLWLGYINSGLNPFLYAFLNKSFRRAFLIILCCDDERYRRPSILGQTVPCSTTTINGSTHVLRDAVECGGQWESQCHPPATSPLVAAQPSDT

This experiment has as its target T1, h5-HT4b (Homo sapiens, UniProt Q13639).
T1 construct: expressed in transfected cells; host or cells: HEK 293 (clone 9), membrane preparation
Description: 5HT4 antagonism: [3H]GR113808 binding to membranes of h5-HT4b-HEK 293 clone 9 cells. As to conditions: displacement of [3H]GR113808 0.1 nM, h5-HT4b-HEK 293 membranes, 30 min at 25° C.; read-out: pIC50 (5HT4 antagonistic data) (converted). As for the experimental part:
h5-HT4b-HEK 293 clone 9 cells were cultured in 150 mm Petri dishes and washed twice with cold PBS. The cells were then scraped from the plates and suspended in 50 mM Tris-HCl buffer, pH 7.4 and harvested by centrifugation at 23,500 rpm for 10 minutes. The pellet was resuspended in 5 mM Tris-HCl, pH 7.4 and homogenized with an Ultra Turrax homogenizer. The membranes were collected by centrifugation at 30,000 rpm for 20 min, resuspended in 50 mM Tris-HCl pH 7.4 and stored at −80° C. For the experiment, assay mixtures (0.5 ml) contained 50 μl of the tritiated ligand (5-HT4 antagonist [^3H]GR113808 0.1 nM) and 0.4 ml membrane preparation (15 μg protein/ml). 50 μl of 10% DMSO was added for total binding. 50 μl of 1 μM of (+)-trans-(1-butyl-3-hydroxy-4-piperidinyl)methyl 8-amino-7-chloro-2,3-dihydro-1,4-benzodioxin-5-carboxylate (a proprietary 5HT4 agonist of Janssen Pharmaceutica) was added for determination of non-specific binding.
The [^3H]GR113808 assay buffer was 50 mM HEPES-NaOH, pH 7.4. The mixtures were incubated for 30 min at 25° C. The incubation was terminated by filtration over a Unifilter 96 GF/B presoaked in 0.1% polyethylenimine, followed by six washing steps with 50 mM HEPES-NaOH, pH 7.4.
(Displacement assays read how much labelled ligand stays bound in the presence of the test substance.)
As to `N#CCCCN1CC[C@@H](CNC(=O)c2cc(N)cc3c2OCCCO3)[C@H](O)C1` [compound 3], the IC50 is 38 nM.

For the molecule `Nc1cc2c(c(C(=O)NC[C@@H]3CCN(CC4CCCO4)C[C@H]3O)c1)OCCCO2` (stereo partly shown) [compound 4], the IC50 is 69.2 nM.

On to `Cc1cc2c(c(C(=O)NC[C@@H]3CCNC[C@H]3O)c1)OCCCO2` [compound 5], for which the IC50 was 64.6 nM.

As to `N#CCCCN1CC[C@@H](CNC(=O)c2cc(N)cc3c2OCCO3)[C@H](O)C1` [compound 6], the IC50 is 57.5 nM. As to `Nc1cc(C(=O)NC[C@@H]2CCN(CCCO)C[C@H]2O)c2c(c1Cl)OCCO2` [compound 7], the IC50 was 17.8 nM. With `Nc1cc(C(=O)NC[C@@H]2CCNC[C@H]2O)c2c(c1Cl)OCCO2` [compound 8], the IC50 is 372 nM. With `COCCCN1CC[C@@H](CNC(=O)c2cc(N)c(Cl)c3c2OCCO3)[C@H](O)C1` [compound 9], the IC50 is 16.2 nM.

In the case of `Nc1cc(C(=O)NC[C@@H]2CCN(CC3CCCO3)C[C@H]2O)c2c(c1Cl)OCCO2` (stereo partly shown) [compound 10], the IC50 was 6.03 nM.

For `CNc1cc2c(c(C(=O)NC[C@@H]3CCN(CCCO)C[C@H]3O)c1)OCCO2` [compound 12], the IC50 was 41.7 nM. The value for `CNc1cc2c(c(C(=O)NC[C@@H]3CCN(CCC4OCCO4)C[C@H]3O)c1)OCCCO2` [compound 13] was 708 nM; that for `Nc1cc(C(=O)NC[C@@H]2CCN(CCC3OCCO3)C[C@H]2O)c2c(c1Cl)OCCO2` [compound 14] was 16.6 nM. For the molecule `N#CCCCN1CC[C@@H](CNC(=O)c2cc(N)c(Cl)c3c2OCCO3)[C@H](O)C1` [compound 15], the IC50 is 30.2 nM. As to `CNc1cc2c(c(C(=O)NC[C@@H]3CCN(CCC4OCCO4)C[C@H]3O)c1)OCCO2` [compound 17], the IC50 was 25.7 nM.

For the molecule `Nc1cc2c(c(C(=O)NC[C@@H]3CCN(CCCC(=O)O)C[C@H]3O)c1)OCCO2` [compound 18], the IC50 was 195 nM. In the case of `CNc1cc2c(c(C(=O)NC[C@@H]3CCN(CC4CCCO4)C[C@H]3O)c1)OCCO2` (stereo partly shown) [compound 19], the IC50 was 17.4 nM. Turning to `CNc1cc2c(c(C(=O)NC[C@@H]3CCN(CCCC#N)C[C@H]3O)c1)OCCO2` [compound 20], the IC50 was 52.5 nM. In the case of `CNc1cc2c(c(C(=O)NC[C@@H]3CCN(CC4CCCO4)C[C@H]3O)c1)OCCCO2` (stereo partly shown) [compound 21], the IC50 was 63.1 nM. For `Nc1cc2c(c(C(=O)NC[C@@H]3CCN(CC4CCCO4)C[C@H]3O)c1)OCCO2` (stereo partly shown) [compound 22], the IC50 is 17.8 nM. As for `CC(C)OCCCN1CC[C@@H](CNC(=O)c2cc(N)cc3c2OCCO3)[C@H](O)C1` [compound 23], the IC50 is 19.1 nM. The value for `Nc1cc(C(=O)NC[C@@H]2CCN(CCCC(=O)O)C[C@H]2O)c2c(c1Cl)OCCO2` [compound 25] was 138 nM. On to `CNc1cc2c(c(C(=O)NC[C@@H]3CCN(CCCC(=O)O)C[C@H]3O)c1)OCCCO2` [compound 27], for which the IC50 is 2630 nM. Take `CCCCN1CC[C@@H](CNC(=O)c2cc(NC)c(Cl)c3c2OCCO3)[C@H](O)C1` [compound 28]: the IC50 is 15.5 nM. The same measure for `COCCCCN1CC[C@@H](CNC(=O)c2cc(N)c(Cl)c3c2OCCO3)[C@H](O)C1` [compound 29]: 11 nM. The value for `CNc1cc(C(=O)NC[C@@H]2CCN(CCC3OCCO3)C[C@H]2O)c2c(c1Cl)OCCO2` [compound 30] was 31.6 nM; that for `Nc1cc(C(=O)NC[C@@H]2CCN(CCCOC3CCCCC3)C[C@H]2O)c2c(c1Cl)OCCO2` [compound 31] was 3.31 nM; that for `COCCN1CC[C@@H](CNC(=O)c2cc(N)cc3c2OCCO3)[C@H](O)C1` [compound 32] was 63.1 nM. With `CNc1cc2c(c(C(=O)NC[C@@H]3CCN(CCCOC4CCCCC4)C[C@H]3O)c1)OCCCO2` [compound 34], the IC50 is 31.6 nM.

As to `CNc1cc2c(c(C(=O)NC[C@@H]3CCN(CCOC)C[C@H]3O)c1)OCCO2` [compound 35], the IC50 is 44.7 nM. For `CNc1cc2c(c(C(=O)NC[C@@H]3CCN(CCCOC(C)C)C[C@H]3O)c1)OCCO2` [compound 36], the IC50 was 21.4 nM.

Consider `CC(C)OCCCN1CC[C@@H](CNC(=O)c2cc(N)cc3c2OCCCO3)[C@H](O)C1` [compound 37], for which the IC50 is 36.3 nM. Consider `CNc1cc2c(c(C(=O)NC[C@@H]3CCN(CCCC#N)C[C@H]3O)c1)OCCCO2` [compound 38], for which the IC50 was 288 nM. On to `Nc1cc2c(c(C(=O)NC[C@@H]3CCN(CCCC(=O)O)C[C@H]3O)c1)OCCCO2` [compound 39], for which the IC50 was 1230 nM. Take `CNc1cc2c(c(C(=O)NC[C@@H]3CCN(CCCOC4CCCCC4)C[C@H]3O)c1)OCCO2` [compound 40]: the IC50 was 6.92 nM. For the molecule `COCCCCN1CC[C@@H](CNC(=O)c2cc(N)cc3c2OCCO3)[C@H](O)C1` [compound 41], the IC50 is 15.5 nM. Turning to `COCCN1CC[C@@H](CNC(=O)c2cc(N)c(Cl)c3c2OCCO3)[C@H](O)C1` [compound 42], the IC50 was 18.6 nM.

Regarding `CC1(CCCN2CC[C@@H](CNC(=O)c3cc(N)c(Cl)c4c3OCCO4)[C@H](O)C2)OCCO1` [compound 43], the IC50 is 13.2 nM. `COCCN1CC[C@@H](CNC(=O)c2cc(N)cc3c2OCCCO3)[C@H](O)C1` [compound 45]: the IC50 is 135 nM.

For `CCCCN1CC[C@@H](CNC(=O)c2cc(N)c(Cl)c3c2OCCCO3)[C@H](O)C1` [compound 46], the IC50 is 8.32 nM.

For the molecule `COCCCN1CC[C@@H](CNC(=O)c2cc(N)c(Cl)c3c2OCCCO3)[C@H](O)C1` [compound 47], the IC50 is 31.6 nM. The same measure for `N#CCCCN1CC[C@@H](CNC(=O)c2cc(N)c(Cl)c3c2OCCCO3)[C@H](O)C1` [compound 48]: 33.1 nM; for `Nc1cc2c(c(C(=O)NC[C@@H]3CCN(CCCOC4CCCCC4)C[C@H]3O)c1)OCCCO2` [compound 49]: 25.7 nM; for `Nc1cc(C(=O)NCC2CCN(CC3CCCO3)C[C@H]2O)c2c(c1Cl)OCCCO2` (stereo partly shown) [compound 51]: 14.5 nM. For `Nc1cc(C(=O)NC[C@@H]2CCN(CCC3OCCO3)C[C@H]2O)c2c(c1Cl)OCCCO2` [compound 52], the IC50 was 14.8 nM.

Consider `Nc1cc(C(=O)NC[C@@H]2CCN(CCCCO)C[C@H]2O)c2c(c1Cl)OCCO2` [compound 53], for which the IC50 was 20 nM. With `CNc1cc2c(c(C(=O)NC[C@@H]3CCN(CCCCOC)C[C@H]3O)c1)OCCO2` [compound 54], the IC50 was 14.8 nM. As for `Nc1cc2c(c(C(=O)NC[C@@H]3CCN(Cc4ccc(F)cc4)C[C@H]3O)c1)OCCCO2` [compound 55], the IC50 is 64.6 nM. For the molecule `CNc1cc2c(c(C(=O)NC[C@@H]3CCN(Cc4ccc(F)cc4)C[C@H]3O)c1)OCCO2` [compound 56], the IC50 was 17.8 nM. As to `COCCCCN1CC[C@@H](CNC(=O)c2cc(N)c(Cl)c3c2OCCCO3)[C@H](O)C1` [compound 58], the IC50 was 14.1 nM. The value for `CC1(CCCN2CC[C@@H](CNC(=O)c3cc(N)cc4c3OCCCO4)[C@H](O)C2)OCCO1` [compound 59] was 51.3 nM; that for `CC(=O)CCCN1CC[C@@H](CNC(=O)c2cc(N)cc3c2OCCCO3)[C@H](O)C1` [compound 60] was 81.3 nM; that for `CNc1cc2c(c(C(=O)NC[C@@H]3CCN(CCCC(C)=O)C[C@H]3O)c1)OCCO2` [compound 61] was 14.5 nM. Take `CNc1cc2c(c(C(=O)NC[C@@H]3CCN(CCCCOC)C[C@H]3O)c1)OCCCO2` [compound 62]: the IC50 was 81.3 nM. Consider `Nc1cc(C(=O)NC[C@@H]2CCN(Cc3ccc(F)cc3)C[C@H]2O)c2c(c1Cl)OCCO2` [compound 64], for which the IC50 is 15.5 nM. The value for `Nc1cc(C(=O)NC[C@@H]2CCN(CCCOC3CCCCC3)C[C@H]2O)c2c(c1Cl)OCCCO2` [compound 65] was 3.55 nM; that for `Nc1cc(C(=O)NC[C@@H]2CCN(CCCC(=O)O)C[C@H]2O)c2c(c1Cl)OCCCO2` [compound 66] was 282 nM.

`CNc1cc2c(c(C(=O)NC[C@@H]3CCN(CCOCCO)C[C@H]3O)c1)OCCCO2` [compound 67]: the IC50 was 479 nM.

As to `Nc1cc2c(c(C(=O)NC[C@@H]3CCN(CCOCCO)C[C@H]3O)c1)OCCCO2` [compound 69], the IC50 is 490 nM.

As to `Nc1cc(C(=O)NC[C@@H]2CCN(CCOCCO)C[C@H]2O)c2c(c1Cl)OCCO2` [compound 70], the IC50 was 89.1 nM. For the molecule `Nc1cc(C(=O)NC[C@@H]2CCN(CCOCCO)C[C@H]2O)c2c(c1Cl)OCCCO2` [compound 72], the IC50 is 83.2 nM.

In the case of `Nc1cc2c(c(C(=O)NC[C@@H]3CCN(CCCCO)C[C@H]3O)c1)OCCCO2` [compound 73], the IC50 is 55 nM. Regarding `CNc1cc2c(c(C(=O)NC[C@@H]3CCN(Cc4ccc(F)cc4)C[C@H]3O)c1)OCCCO2` [compound 74], the IC50 was 214 nM. As to `CS(=O)(=O)NCCN1CC[C@@H](CNC(=O)c2cc(N)c(Cl)c3c2OCCCO3)[C@H](O)C1` [compound 75], the IC50 is 30.9 nM. With `CC1(CCCN2CC[C@@H](CNC(=O)c3cc(N)c(Cl)c4c3OCCCO4)[C@H](O)C2)OCCO1` [compound 76], the IC50 was 22.9 nM. Regarding `CNc1cc2c(c(C(=O)NC[C@@H]3CCN(CCCC(C)=O)C[C@H]3O)c1)OCCCO2` [compound 77], the IC50 was 69.2 nM.
